This assay deals with Gamma-secretase. The assay is described as follows: Inhibition of amyloid-beta production in Chinese hamster ovary (CHO) cells expressing human amyloid precursor protein (APP). It counts as functional, cell-based.

Usually pIC50 stands for the IC50 on a negative log10 scale, so that one unit is a factor of ten. A higher pIC50 goes with a low IC50.

pIC50: −log10 of the molar value.

On to `COC(=O)[C@H](Cc1ccccc1)NC(=O)[C@H](CC(C)C)NC(=O)N(C)C[C@@H](O)[C@H](Cc1ccccc1)NC(=O)OC(C)(C)C`, for which the negative-log IC50 (pIC50) was 5.51.
With `COC(=O)[C@H](CC(C)C)NC(=O)[C@@H](NC(=O)[C@H](CC(C)C)NC(=O)N(Cc1ccccc1)C[C@@H](O)[C@H](Cc1ccccc1)NC(=O)OC(C)(C)C)C(C)C`, the pIC50 is 6.27.
With `COC(=O)[C@H](CC(C)C)NC(=O)N(Cc1ccccc1)C[C@@H](O)[C@H](Cc1ccccc1)NC(=O)OC(C)(C)C` the figure was 5.10.
The compound `COC(=O)[C@@H](NC(=O)[C@H](CC(C)C)NC(=O)N(Cc1ccccc1)C[C@@H](O)[C@H](Cc1ccccc1)NC(=O)[C@H](CC(C)C)NC(=O)OC(C)(C)C)C(C)C` had a pIC50 of 6.64.
Consider `COC(=O)[C@H](CC(C)C)NC(=O)[C@H](CC(C)C)NC(=O)N(Cc1ccccc1)C[C@@H](O)[C@H](Cc1ccccc1)NC(=O)OC(C)(C)C`, for which the pIC50 was 6.19.
As to `COC(=O)[C@H](Cc1ccccc1)NC(=O)[C@@H](NC(=O)[C@H](CC(C)C)NC(=O)N(Cc1ccccc1)C[C@@H](O)[C@H](Cc1ccccc1)NC(=O)OC(C)(C)C)C(C)C`, the pIC50 is 6.60.
Take `COC(=O)[C@@H](NC(=O)[C@@H](NC(=O)[C@H](CC(C)C)NC(=O)N(Cc1ccccc1)C[C@@H](O)[C@H](Cc1ccccc1)NC(=O)OC(C)(C)C)C(C)C)C(C)C`: the pIC50 was 6.28.
On to `CC[C@H](C)[C@H](NC(=O)[C@@H](NC(=O)[C@H](CC(C)C)NC(=O)N(Cc1ccccc1)C[C@@H](O)[C@H](Cc1ccccc1)NC(=O)OC(C)(C)C)C(C)C)C(=O)OC`, for which the pIC50 is 6.57.
Regarding `COC(=O)[C@H](Cc1ccccc1)NC(=O)[C@H](CC(C)C)NC(=O)N(CC(C)C)C[C@@H](O)[C@H](Cc1ccccc1)NC(=O)OC(C)(C)C`, the pIC50 is 6.40.
With `COC(=O)[C@H](C)NC(=O)[C@@H](NC(=O)[C@H](CC(C)C)NC(=O)N(Cc1ccccc1)C[C@@H](O)[C@H](Cc1ccccc1)NC(=O)OC(C)(C)C)C(C)C` the figure was 6.17.
The compound `COC(=O)[C@H](Cc1ccccc1)NC(=O)[C@H](CC(C)C)NC(=O)N(C[C@@H](O)[C@H](Cc1ccccc1)NC(=O)OC(C)(C)C)C(C)C` gave a pIC50 of 4.66.
For the compound `COC(=O)[C@@H](NC(=O)[C@H](CC(C)C)NC(=O)N(Cc1ccccc1)C[C@@H](O)[C@H](Cc1ccccc1)NC(=O)[C@H](C)NC(=O)OC(C)(C)C)C(C)C`, the pIC50 is 6.82.
With `COC(=O)[C@@H](NC(=O)[C@H](CC(C)C)NC(=O)N(Cc1ccccc1)C[C@@H](O)[C@H](Cc1ccccc1)NC(=O)[C@H](Cc1ccccc1)NC(=O)OC(C)(C)C)C(C)C` the figure was 6.30; with `COC(=O)[C@H](Cc1ccccc1)NC(=O)[C@@H](NC(=O)N(Cc1ccccc1)C[C@@H](O)[C@H](Cc1ccccc1)NC(=O)OC(C)(C)C)C(C)C`, 6.40.
For the compound `COC(=O)[C@@H](NC(=O)[C@H](CC(C)C)NC(=O)N(Cc1ccccc1)C[C@@H](O)[C@H](Cc1ccccc1)NC(=O)[C@@H](NC(=O)OC(C)(C)C)C(C)C)C(C)C`, the pIC50 was 7.15.
With `COC(=O)[C@H](Cc1ccccc1)NC(=O)[C@H](Cc1ccccc1)NC(=O)N(Cc1ccccc1)C[C@@H](O)[C@H](Cc1ccccc1)NC(=O)OC(C)(C)C`, the pIC50 is 4.74.
As for `COC(=O)[C@H](Cc1ccccc1)NC(=O)[C@H](C)NC(=O)N(Cc1ccccc1)C[C@@H](O)[C@H](Cc1ccccc1)NC(=O)OC(C)(C)C`, the figure is 6.85; as for `COC(=O)[C@@H](NC(=O)[C@H](CC(C)C)NC(=O)N(Cc1ccccc1)C[C@@H](O)[C@H](Cc1ccccc1)NC(=O)OC(C)(C)C)C(C)C`, 6.66; as for `COC(=O)[C@H](C)NC(=O)[C@H](CC(C)C)NC(=O)N(Cc1ccccc1)C[C@@H](O)[C@H](Cc1ccccc1)NC(=O)OC(C)(C)C`, 4.70.
On to `COC(=O)[C@H](Cc1ccccc1)NC(=O)[C@H](CC(C)C)NC(=O)N(Cc1ccccc1)C[C@@H](O)[C@H](Cc1ccccc1)NC(=O)OC(C)(C)C` (stereo in doubt; 2), for which the pIC50 is 6.41.
With `COC(=O)[C@H](Cc1ccccc1)NC(=O)[C@H](CC(C)C)NC(=O)N(Cc1ccccc1)C[C@@H](O)[C@H](Cc1ccccc1)NC(=O)OC(C)(C)C` (stereo in doubt; 9) the figure was 6.40; with `COC(=O)[C@H](Cc1ccccc1)NC(=O)[C@H](CC(C)C)NC(=O)N(Cc1ccccc1)C[C@@H](O)[C@H](Cc1ccccc1)NC(=O)OC(C)(C)C` (stereo in doubt; 12), 6.41.

Source of the values: ChEMBL document CHEMBL1137957, “Probing pockets S2-S4' of the gamma-secretase active site with (hydroxyethyl)urea peptidomimetics” (Bioorg Med Chem Lett, 2004).
